Measurements as given in paper PMC7961094 (The Journal of Biological Chemistry, 2021).
Where two headings read alike, the source gives them in different places.

Key:
[1] = target: glutamate dehydrogenase (GDH); assay: 2,4-DNPH oxidative deamination assay with GDH; format: biochemical, thermophilic bacterium species; details: 0.25 μM GDH; for IC50: 5 mM L-glutamate, 2.5 mM NAD^+, brackets 95% confidence interval
Method: Next, we selected two reported GDH inhibitors to assess their IC50 values using the 2,4-DNPH α-KG assay. For these experiments, we held glutamate and NAD^+ at saturating concentrations of 5 mM and 2.5 mM, respectively, while varying the concentrations of inhibitors. Hexachlorophene (HCP) is a noncompetitive inhibitor of GDH that binds to the inner core of the GDH hexamer, thereby preventing the conformational changes necessary for catalytic turnover ([60]). […] Conversely, 2-Methyleneglutarate (2-MG) was selected as a nonaromatic, competitive inhibitor of GDH with respect to L-glutamate ([61]).
Lyophilized GDH was resuspended in a solution of 50 mM Tris-base buffer (pH 8.0) and […]. Each oxidative deamination reaction was carried out in a final volume of 0.5 ml. The cofactor mix was prepared with 50 mM Tris-base buffer (pH 8.0), 1 mM EDTA, 5 mM L-glutamate and 2.5 mM NAD^+ and commenced by adding 0.25 μM GDH. The reaction was allowed to proceed at 50 °C for up to 30 min. During the course of the reaction, 50 μl was withdrawn at various time points from the reaction tube and quenched in 50 μl of 10% TCA at predetermined time points and vortexed. The downstream processing steps are identical to those of the 2,4-DNPH α-KG assay.
(§1) Subsequent measurements were performing at time points conforming to those requirements. Initial velocities at each substrate concentration were fit using linear regression to generate Michaelis–Menten titration curves.
(§2) All data were plotted using GraphPad Prism 8.0 and presented as a mean ± standard deviation of three independent biological replicates, unless otherwise stated. For kinetic data, Km was determined by fitting the data to a least squares ordinary fit Michealis–Menten function, while IC50 values were obtained from fitting the data to a three-parameter log(inhibitor) versus response function. Where applicable, two-tailed t tests were performed to determine statistical significance using a p-value of 0.05.

PHD2_181-426 = PHD2_181-426 (Homo sapiens, UniProt Q9GZT9); assay: 2,4-DNPH α-KG assay with PHD2
Chain of PHD2_181-426 (Q9GZT9 181-426): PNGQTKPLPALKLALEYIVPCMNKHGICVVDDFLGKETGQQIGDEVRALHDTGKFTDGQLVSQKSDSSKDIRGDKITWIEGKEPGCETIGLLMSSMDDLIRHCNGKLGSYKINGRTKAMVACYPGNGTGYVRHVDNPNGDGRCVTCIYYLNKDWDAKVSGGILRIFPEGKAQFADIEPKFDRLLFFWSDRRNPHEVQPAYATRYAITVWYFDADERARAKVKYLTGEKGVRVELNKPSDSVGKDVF
Method: (§3) During the course of the reaction, 50 μl was withdrawn at various time points from the reaction tube and quenched in 50 μl of 10% TCA at predetermined time points and vortexed.
as §1, §2

PHD3 [2] = target: PHD3 (Homo sapiens, UniProt Q9H6Z9); assay: 2,4-DNPH α-KG assay with PHD3
Chain of PHD3 (Homo sapiens, UniProt Q9H6Z9) (Q9H6Z9 whole entry): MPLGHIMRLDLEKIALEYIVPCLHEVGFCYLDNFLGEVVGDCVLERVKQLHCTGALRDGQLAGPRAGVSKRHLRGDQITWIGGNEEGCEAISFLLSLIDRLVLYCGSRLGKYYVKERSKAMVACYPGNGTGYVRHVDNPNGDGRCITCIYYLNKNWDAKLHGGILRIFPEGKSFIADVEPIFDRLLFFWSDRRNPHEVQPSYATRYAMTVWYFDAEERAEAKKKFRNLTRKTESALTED
Method: as §3, §1, §2

PHD3 [3] = details: read-out: Km (app; α-KG), cited from earlier work
PHD2 = details: read-out: Km (app; α-KG), cited from earlier work

Which IC50 [1] does the source give for `C=C(CCC(=O)O)C(=O)O` [2-MG, 2-methyleneglutaric acid, reference compound] here?
Its IC50 is 24.9 µM.

What about the IC50 ([1]; listed as 2-Methyleneglutarate (2-MG)) of the same compound?
The IC50 was 24.9 µM.

With `[Cl-].[Cl-].[Co+2]` [CoCl2, cobalt (II) chloride, reference compound] as the compound, how does the IC50 (PHD2_181-426) read?
The IC50 was 6.4 µM.

And the IC50 (PHD3 [2]; 0.5 mM α-ketoglutarate, 100 μM HIF peptide, 10 μM PHD3, brackets 95% confidence interval)?
Its IC50 is 79.3 µM.

Which IC50 [1] does the source give for `Oc1c(Cl)cc(Cl)c(Cl)c1Cc1c(O)c(Cl)cc(Cl)c1Cl` [HCP, Hexachlorophene, reference compound] here?
Its IC50 is 1.52 µM.

For `NC(=O)c1ccc[n+]([C@@H]2O[C@H](COP(=O)([O-])OP(=O)(O)OC[C@H]3O[C@@H](n4cnc5c(N)ncnc54)[C@H](O)[C@@H]3O)[C@@H](O)[C@H]2O)c1` [NAD^+, nicotinamide adenine dinucleotide], which “kcat for NAD^+” value ([1]; increasing NAD^+, saturating other reagents) is on record?
The value was 252 ± 8 min⁻¹.

And the Km ([1]; increasing NAD^+, saturating other reagents, read-out: Km for NAD^+)?
Its Km is 517 ± 55.8 µM.

For `O=C(O)CNC(=O)C(=O)O` [NOG, N-oxalylglycine], which IC50 (PHD3 [2]) is on record?
The IC50 was 51.3 µM.

For `N[C@@H](CCC(=O)O)C(=O)O` [glutamate, L-glutamate], which kcat for glutamate ([1]; increasing L-glutamate, saturating other reagents) is on record?
The kcat for glutamate was 268 ± 4 min⁻¹.

What about the Km ([1]; increasing L-glutamate, saturating other reagents, read-out: Km for glutamate) of the same compound?
The Km was 746 ± 58.6 µM.

Which results are given for `O=C(O)CCC(=O)C(=O)O` [α-ketoglutarate]?
Km (PHD3 [3]; ref Hirsila et al. ([2])): 55 µM; Km (PHD3 [3]; ref Koivunen et al. ([51])): 12 ± 4 µM; Km (PHD3 [3]; ref Oehme et al. ([25])): 3 µM; kcat (α-ketoglutarate titration) (PHD2_181-426): 4.3 ± 0.3 min⁻¹; Km (PHD2; PHD2, ref Dao et al. ([52])): 0.343 ± 0.028 µM; Km (PHD2; PHD2, ref Hirsila et al. ([2])): 60 µM; Km (PHD2; PHD2, ref Koivunen et al. ([51])): 1 ± 0.2 µM; Km (PHD2; PHD2^181–426, ref Ehrismann et al. ([11])): 55 ± 1.1 µM; Km (PHD2; PHD2^181–426, ref McNeill et al. ([10])): 25 ± 6 µM; Km (PHD2; PHD2^181–426, ref Tarhonskaya et al. ([19])): 13 ± 2 µM
